Laboratory results from ChEMBL document CHEMBL4330064, “Phytoestrogens and their synthetic analogues as substrate mimic inhibitors of CYP1B1” (Eur J Med Chem, 2019).

Columns and labels:
Cytochrome P450 1B1 [1] = biological target: T1, Cytochrome P450 1B1 (Homo sapiens, UniProt Q16678); assay: Inhibition of CYP1B1 in human MCF7 cells assessed as reduction in TCDD-induced CYP1B1-mediated EROD activity by EROD assay; assay type: cell-based
T1 sequence (Q16678 whole entry): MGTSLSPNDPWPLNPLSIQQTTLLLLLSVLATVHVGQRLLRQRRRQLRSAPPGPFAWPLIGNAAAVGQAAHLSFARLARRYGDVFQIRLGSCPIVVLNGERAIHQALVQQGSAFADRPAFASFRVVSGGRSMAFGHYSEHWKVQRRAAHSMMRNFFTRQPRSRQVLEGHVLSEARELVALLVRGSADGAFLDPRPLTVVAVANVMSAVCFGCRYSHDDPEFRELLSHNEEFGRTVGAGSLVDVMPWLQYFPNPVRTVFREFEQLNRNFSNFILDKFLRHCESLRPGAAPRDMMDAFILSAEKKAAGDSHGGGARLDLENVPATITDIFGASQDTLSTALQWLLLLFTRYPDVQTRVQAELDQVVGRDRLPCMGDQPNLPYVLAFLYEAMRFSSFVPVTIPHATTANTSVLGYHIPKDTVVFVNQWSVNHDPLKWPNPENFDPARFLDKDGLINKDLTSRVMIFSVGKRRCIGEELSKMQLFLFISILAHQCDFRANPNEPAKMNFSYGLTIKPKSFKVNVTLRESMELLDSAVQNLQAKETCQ

Cytochrome P450 1B1 [2] = biological target: T1, Cytochrome P450 1B1; assay: Inhibition of CYP1B1 in human MCF7 cells assessed as reduction in DMBA-induced CYP1B1-mediated EROD activity by EROD assay; assay type: cell-based
Cytochrome P450 1B1 [3] = biological target: T1, Cytochrome P450 1B1; assay: Inhibition of human CYP1B1 using 7-Ethoxyresorufin as substrate after 30 mins in presence of NADP+ by EROD assay
Cytochrome P450 1A1 [4] = biological target: T2, Cytochrome P450 1A1 (Homo sapiens, UniProt P04798); assay: Inhibition of human CYP1A1 by EROD assay; assay type: ADME
Cytochrome P450 1A2 [5] = biological target: T3, Cytochrome P450 1A2 (Homo sapiens, UniProt P05177); assay: Inhibition of human CYP1A2 using 7-Ethoxyresorufin as substrate after 50 mins in presence of NADP+ by EROD assay; assay type: ADME
T3 sequence (P05177 whole entry): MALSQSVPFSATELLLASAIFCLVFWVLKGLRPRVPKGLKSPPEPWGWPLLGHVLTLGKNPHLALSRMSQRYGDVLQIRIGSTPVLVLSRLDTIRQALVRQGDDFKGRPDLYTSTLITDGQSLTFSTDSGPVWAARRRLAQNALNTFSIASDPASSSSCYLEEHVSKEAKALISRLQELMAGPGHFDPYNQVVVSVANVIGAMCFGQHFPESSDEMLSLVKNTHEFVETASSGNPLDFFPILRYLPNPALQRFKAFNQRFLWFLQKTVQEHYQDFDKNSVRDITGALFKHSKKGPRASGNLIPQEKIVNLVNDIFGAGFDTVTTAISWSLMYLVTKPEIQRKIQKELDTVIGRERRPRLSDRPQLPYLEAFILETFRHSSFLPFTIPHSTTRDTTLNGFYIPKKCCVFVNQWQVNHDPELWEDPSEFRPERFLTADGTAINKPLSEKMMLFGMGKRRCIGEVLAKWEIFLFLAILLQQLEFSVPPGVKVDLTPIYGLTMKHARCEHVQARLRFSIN

Cytochrome P450 1A1 [6] = biological target: T2, Cytochrome P450 1A1; assay: Inhibition of human CYP1A1 using 7-Ethoxyresorufin as substrate after 15 mins in presence of NADP+ by EROD assay; assay type: ADME
Cytochrome P450 1A1 [7] = biological target: T2, Cytochrome P450 1A1; assay: Inhibition of […] CYP1A1 expressed in Escherichia coli DH5alpha cell membranes coexpressing human NADPH-cytochrome P450 reductase using 7-Ethoxyresorufin as substrate preincubated for 3 mins followed by NADPH addition measured after 10 mins by EROD assay; assay type: ADME
Cytochrome P450 1B1 [8] = biological target: T1, Cytochrome P450 1B1; assay: Inhibition of human CYP1B1 expressed in Escherichia coli DH5alpha cell membranes coexpressing human NADPH-cytochrome P450 reductase using 7-Ethoxyresorufin as substrate by EROD assay
Cytochrome P450 1B1 [9] = biological target: T1, Cytochrome P450 1B1; assay: Inhibition of CYP1B1 in human HepG2 cells; assay type: cell-based
Cytochrome P450 1A2 [10] = biological target: T3, Cytochrome P450 1A2; assay: Inhibition of […] CYP1A2 expressed in Escherichia coli DH5alpha cell membranes coexpressing human NADPH-cytochrome P450 reductase using 7-Ethoxyresorufin as substrate preincubated for 3 mins followed by NADPH addition measured after 10 mins by EROD assay; assay type: ADME
Cytochrome P450 1B1 [11] = biological target: T1, Cytochrome P450 1B1; assay: Inhibition of […] CYP1B1 expressed in Escherichia coli DH5alpha cell membranes coexpressing human NADPH-cytochrome P450 reductase using 7-Ethoxyresorufin as substrate preincubated for 3 mins followed by NADPH addition measured after 10 mins by EROD assay
Cytochrome P450 1A1 [12] = biological target: T2, Cytochrome P450 1A1; assay: Inhibition of human CYP1A1 using ethoxyresorufin as substrate by MROD assay; assay type: ADME
Cytochrome P450 1B1 [13] = biological target: T1, Cytochrome P450 1B1
Description: Inhibition of human CYP1B1 by EROD assay

Cytochrome P450 1B1 [14] = biological target: T1, Cytochrome P450 1B1; assay: Mixed type inhibition of human CYP1B1 by EROD assay
Cytochrome P450 1A1 [15] = biological target: T2, Cytochrome P450 1A1; assay: Inhibition of human CYP1A1 using ethoxyresorufin as substrate by EROD assay; assay type: ADME

T2 sequence (P04798 whole entry): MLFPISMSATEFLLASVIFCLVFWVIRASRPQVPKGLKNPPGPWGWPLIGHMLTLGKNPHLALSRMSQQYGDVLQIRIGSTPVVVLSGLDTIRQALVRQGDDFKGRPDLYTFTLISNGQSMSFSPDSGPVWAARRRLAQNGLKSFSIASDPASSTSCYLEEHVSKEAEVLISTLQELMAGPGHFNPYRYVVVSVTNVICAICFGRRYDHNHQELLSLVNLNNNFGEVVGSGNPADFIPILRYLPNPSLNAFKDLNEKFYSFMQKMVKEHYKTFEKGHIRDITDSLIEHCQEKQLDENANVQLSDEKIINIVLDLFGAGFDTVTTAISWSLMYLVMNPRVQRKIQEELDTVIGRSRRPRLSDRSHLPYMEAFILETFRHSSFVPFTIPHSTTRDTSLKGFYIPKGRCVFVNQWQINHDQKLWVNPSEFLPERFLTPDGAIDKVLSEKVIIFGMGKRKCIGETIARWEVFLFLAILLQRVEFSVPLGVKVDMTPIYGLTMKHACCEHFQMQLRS

| SMILES | INH (Cytochrome P450 1A1 [7]) [µM] | INH (Cytochrome P450 1A2 [10]) [µM] | INH (Cytochrome P450 1B1 [11]) [µM] | other results |
| --- | --- | --- | --- | --- |
| C[C@]12CCCCC1=CC[C@@H]1[C@@H]2CC[C@]2(C)C(=O)[C@H](F)C[C@@H]12 | – | – | – | IC50 (Cytochrome P450 1B1 [1]): 2500 nM; IC50 (Cytochrome P450 1B1 [2]): 500 nM |
| COc1ccc(-c2cc(=O)c3cc(OC)c4cccc(OC)c4c3[nH]2)cc1 | – | – | – | IC50 (Cytochrome P450 1B1 [3]): 4.1 nM |
| COc1ccc2c(c(OC)cc3c(=O)cc(-c4ccc(F)cc4)oc32)c1OC | – | – | – | IC50 (Cytochrome P450 1A1 [4]): 1 nM |
| COc1cc2c(=O)cc(-c3cccc(Br)c3)[nH]c2c2c(OC)cccc12 | – | – | – | IC50 (Cytochrome P450 1B1 [3]): 3.6 nM |
| COc1cc2c(=O)cc(-c3ccc(F)cc3)[nH]c2c2c(OC)cccc12 | – | – | – | IC50 (Cytochrome P450 1B1 [3]): 3.9 nM; IC50 (Cytochrome P450 1A2 [5]): 190 nM; IC50 (Cytochrome P450 1A1 [6]): 10.5 nM |
| O=c1cc(-c2ccc(O)cc2)oc2cc(O)cc(O)c12 [APIGENIN] | 4.1 | – | – | – |
| COc1ccc2cc3[n+](cc2c1OC)CCc1cc2c(cc1-3)OCO2 [BERBERINE] | – | – | – | IC50 (Cytochrome P450 1B1 [8]): 94 nM; IC50 (Cytochrome P450 1B1 [9]): 2500 nM |
| O=c1cc(-c2ccccc2)oc2cc(O)cc(O)c12 [CHRYSIN] | 6.2 | 0.42 | 0.28 | – |
| COc1cc(-c2oc3cc(O)cc(O)c3c(=O)c2O)ccc1O [ISORHAMNETIN] | 25 | 137 | 30.1 | – |
| O=c1c(O)c(-c2ccc(O)cc2)oc2cc(O)cc(O)c12 [KAEMPFEROL] | 52 | – | – | – |
| O=c1cc(-c2ccc(O)c(O)c2)oc2cc(O)cc(O)c12 [LUTEOLIN] | 1.2 | 8.9 | 0.36 | – |
| O=c1c(O)c(-c2ccc(O)c(O)c2)oc2cc(O)cc(O)c12 [QUERCETIN] | 77 | 418 | 23 | – |
| Oc1ccc(/C=C/c2cc(O)cc(O)c2)cc1 [RESVERATROL] | – | – | – | IC50 (Cytochrome P450 1A1 [12]): 11000 nM; IC50 (Cytochrome P450 1B1 [13]): 1400 nM; Ki (Cytochrome P450 1B1 [14]): 750 nM; IC50 (Cytochrome P450 1A1 [15]): 23000 nM |
